Measurements taken from patent publication US5972698A, “Tryptase inhibitor” (Novartis Corporation, priority 1993, dated 1999).
*1 amine or outer side, *2 acyl side, *3 side chain or, on linkers, in order; H or OH if unused. Where a SMILES comes first, the peptide text is derived from it. CO = O=C([*:1])[*:2]

Tests used:
Human tryptase = conditions: cited from earlier work
Tryptase (human) = assay: Inhibition of the amidolytic activity of tryptase / equilibrium dissociation constants (Ki); type: biochemical
Protocol: h) Inhibitory activity: During the purification procedure the inhibitor was followed by measurements of its effect on the amidolytic activity of tryptase. Therefore, samples were incubated with tryptase (0.59 nM) in 50 mM Tris/HCl (pH 7.6), 150 mM NaCl, 50 μg/ml bovine lung heparin, and 0.1% (w/v) bovine serum albumin for 25 min at 37° C. The assay was started by addition of the substrate tos-Gly-Pro-Arg-pNa at a final concentration of 0.1 mM. The released nitroaniline was monitored spectrometrically at 405 nm for 3.5 min using a UVIKON 930 photometer (Kontron; Eching, Germany).
k) Determination of equilibrium constants: To determine the specificity of the inhibitor, its effect on the amidolytic activity of various serine proteinases (see Tab. 5) was determined. […] The residual enzyme activity was measured after addition of a suitable substrate.
Equilibrium dissociation constants (Ki) for the complexes of the inhibitor with individual proteases were determined essentially as described by Bieth [Bieth, 1980]. Briefly, increasing concentrations of the inhibitor were incubated with a constant concentration of the enzyme; the time necessary to reach equilibration of the enzyme-inhibitor complex was determined for each protease in preliminary experiments. Substrate was then added, and the residual enzyme activity measured. […]

[1] = Isoelectric focussing (PhastSystem); type: physicochemical
Protocol: a) SDS-PAGE and isoelectric focussing (IEF) SDS-PAGEs of the proteins were performed with 15-25% polyacrylamide gels following the procedure of Laemmli [Laemmli, 1970]. The gels were either self-prepared and run in a conventional apparatus or in the PhastSystem (Pharmacia, Sollentuna, Sweden). Isoelectric focussing was also done with the PhastSystem using the isoelectric focussing calibration kit pH 3-10.

Molecule	inhibition of tryptase (literature) (Human tryptase)	also measured
CC(C)[C@H](NC(=O)[C@H](CCCNC(=N)N)NC(=O)N[C@@H](Cc1ccccc1)C(=O)O)C(=O)N[C@H](C=O)CCCNC(=N)N [antipain] ({Phe-CO}-Arg-Val-Arg-aldehyde)	–	Ki values for the complexes with tryptase (literature) (Human tryptase): micromolar range
C1 -esterase inhibitor: naturally occurring antiproteinase	not inhibited	–
hirudin	not affected	–
aprotinin	not affected	–
ecotin: proteinase inhibitor	not affected	–
tosyl-L-lysine chloromethyl ketone	inhibited	–
O=S(=O)(F)Cc1ccccc1 [phenylmethylsulfonyl fluoride]	inhibited	–
alpha2 -macroglobulin: naturally occurring antiproteinase	not inhibited	–
antithrombin III	not inhibited	–
rLDTI-C: recombinant form C inhibitor expressed in Saccharomyces cerevisiae with secretion vector pVT102U/alpha and strain S-78 (KKVCACPKILKPVCGSDGRTYANSCIARCNGVSIKSEGSCPTGILN)	–	Ki (Tryptase (human); Ki for the inhibition of two of the four subunits of the tryptase-tetramer, substrate Tos-Gly-Pro-Arg-pNA, read-out: Ki (second Ki column)): 1.9 nM; maximal inhibition of human tryptase (Tryptase (human); substrate tos-Gly-Pro-Arg-pNa): ~ 50%; isoelectric point [1]: > 10 pH
alpha1 -proteinase inhibitor: naturally occurring antiproteinase	not inhibited	–
CC(=O)N[C@@H](CC(C)C)C(=O)N[C@@H](CC(C)C)C(=O)N[C@H](C=O)CCCNC(=N)N [leupeptin]	–	Ki values for the complexes with tryptase (literature) (Human tryptase): micromolar range
